Experimental data from patent US9931315B2, “Method of selectively inhibiting Ras-mediated tumor growth in humans” (ADT PHARMACEUTICALS, INC., priority 2014, dated 2018).
Read-outs that look alike come from different tables or passages of the source.

Tests used:
Format in all cases: cell-based, human
[1] = tested on: HCT-116 colon tumor cells; assay: Cell growth inhibition (CellTiter-Glo), HCT-116 colon tumor cells expressing mutant Ras; conditions: ratio IC50 HT-29 (WT Ras) / IC50 HCT-116 (mutant Ras), 5000 cells/well, 96-well plates
Experimental: This example illustrates cell growth assays employed in the present invention. […] Normal rat kidney (NRK) and Ki-Ras transformed NRK cells (K-NRK) were obtained from ATCC, and were cultured according to supplier recommendations. CellTiter-Glo ATP cell growth assay reagents were obtained from Promega and used according to the manufacturer's protocol. Inhibitors of EGFR, Raf, and MEK were obtained from Selleck Chemicals. Cells were plated at a density of 5,000 cells per well in 96-well microplates or 1,250 cells per well in 384-well plates, and allowed to attach for at least 4 h. Test compounds were dissolved in dimethyl sulfoxide (DMSO), and this working stock was further diluted in growth medium for addition to cell cultures. Serial dilutions of the test compound were prepared in growth medium containing an equal amount of DMSO not exceeding 0.2% final concentration. Each compound concentration was tested in at least 3 separate samples per cell line. At the end of a 3-day treatment period, growth inhibition was analyzed using a bioluminescent assay of ATP concentration (Promega CellTiter-Glo) according to the manufacturer's protocol. Resulting luminescence was measured using the luminescence cartridge of the Molecular Devices Spectramax Paradigm microplate reader. Relative growth inhibition for each sample was determined by comparison with the values obtained for vehicle treated control samples. […] This example illustrates use of well-established human colon tumor cell lines with widely divergent Ras activation status to determine selectivity values for exemplary compounds of the present invention. […] Cells were plated at 5000 cells/well in 96-well plates, and viable cell numbers were measured using the Cell Titer Glo ATP luminescence assay (Promega). […] Cells were seeded in 384-well plates and allowed to attach. Ten-fold serial dilutions of compounds were tested. Each compound concentration was tested in at least 3 separate samples per cell line.

[2] = tested on: HT-29 colon cancer cells; assay: Cell growth inhibition (CellTiter-Glo ATP assay), HT-29 cells with wild-type Ras; conditions: Homo sapiens, HT-29
Experimental: (§1) This example illustrates cell growth assays employed in the present invention.
(§2) Normal rat kidney (NRK) and Ki-Ras transformed NRK cells (K-NRK) were obtained from ATCC, and were cultured according to supplier recommendations. CellTiter-Glo ATP cell growth assay reagents were obtained from Promega and used according to the manufacturer's protocol. Inhibitors of EGFR, Raf, and MEK were obtained from Selleck Chemicals. Cells were plated at a density of 5,000 cells per well in 96-well microplates or 1,250 cells per well in 384-well plates, and allowed to attach for at least 4 h. Test compounds were dissolved in dimethyl sulfoxide (DMSO), and this working stock was further diluted in growth medium for addition to cell cultures. Serial dilutions of the test compound were prepared in growth medium containing an equal amount of DMSO not exceeding 0.2% final concentration. Each compound concentration was tested in at least 3 separate samples per cell line. At the end of a 3-day treatment period, growth inhibition was analyzed using a bioluminescent assay of ATP concentration (Promega CellTiter-Glo) according to the manufacturer's protocol. Resulting luminescence was measured using the luminescence cartridge of the Molecular Devices Spectramax Paradigm microplate reader. Relative growth inhibition for each sample was determined by comparison with the values obtained for vehicle treated control samples. Growth inhibition values were plotted with the GraphPad Prism5 software using the 4-parameter logistic fit to obtain IC50 values, which corresponds to the growth inhibitory potency of the compound.
(§3) This example illustrates effects of exemplary compounds of the present invention on cancer cells having activated or mutated Ras compared to wild-type (WT) Ras. […] A549 lung cancer cells, which harbor a mutation in the K-Ras oncogene were treated for three days with the compounds.
(§4) Cells were seeded in 384-well plates and allowed to attach. Ten-fold serial dilutions of compounds were tested. Each compound concentration was tested in at least 3 separate samples per cell line.

[3] = tested on: A549 lung cancer cells; assay: Cell growth inhibition (CellTiter-Glo ATP assay), A549 cells with mutant K-Ras; conditions: for IC50: Homo sapiens, A549, 72 h, growth inhibition, three days treatment, K-Ras mutant lung cancer cells, read-out: A549 (Ras-activated) IC50; for Selectivity HT-29/A549: ratio IC50 HT-29 (WT Ras) / IC50 A549 (Ras-activated)
Experimental: This example illustrates cell growth assays employed in the present invention. Cells used in such assays included A-549, HT-29, MDA-MB-231, Colo-205, Caco2, HCT-116, SW-480, and DLD-1 human cancer cells obtained from the American Type Culture Collection (ATCC).
as §2, with “Human tumor cells were cultured using standard methods in RPMI-1640 growth medium supplemented with 5% fetal bovine serum (FBS). Normal” for “Normal”
as §3

[4] = tested on: SW-480 cells; assay: Cell growth inhibition (CellTiter-Glo), SW-480 colorectal cells with activated Ras; conditions: for IC50: Homo sapiens, SW480, growth inhibition, 384-well plates, Table 3, read-out: SW-480 (Ras Activated IC50); for Selectivity Caco-2/SW-480: ratio IC50 Caco-2 (WT Ras) / IC50 SW-480 (Ras activated)
Experimental: as §1, §2
The growth inhibitory activity of the compounds was tested using the CellTiter-Glo assay. Cells were seeded in 384-well plates and allowed to attach, then ten-fold serial dilutions of compounds were tested. Each concentration was tested in at least 3 separate samples per cell line.
as §4

[5] = tested on: Caco-2 cells; assay: Cell growth inhibition (CellTiter-Glo), Caco-2 colorectal cells with wild-type Ras; conditions: Homo sapiens, Caco-2; growth inhibition, 384-well plates, Table 3; read-out: Caco-2 (WT Ras) IC50
[6] = growth inhibition, colon cancer cells with wild-type Ras, Table 2, read-out: HT-29 (WT Ras) IC50

SMILES | HT-29/HCT-116 selectivity values [1] | IC50 ([2]; known Ras pathway inhibitors, 384-well plates, Table 4, read-out: HT-29 IC50) | IC50 [2, 6] | IC50 [3] | Selectivity HT-29/A549 [3] | IC50 [4] | Selectivity Caco-2/SW-480 [4] | IC50 [5]
COc1cc(/C=C2/C(C)=C(CC(=O)NCc3cccn3C)c3cc(F)ccc32)cc(OC)c1O [Compound 019, (Z)-2-(5-fluoro-1-(4-hydroxy-3,5-dimethoxybenzylidene)-2-methyl-1H-inden-3-yl)-N-((1-methyl-1H-pyrrol-2-yl)methyl)acetamide] | 188 |  |  |  |  |  |  | 
OCCn1cc(-c2ccc3c(c2)CC/C3=N\O)c(-c2ccncc2)n1 [GDC0879, reference compound] |  | 23600 nM |  |  |  |  |  | 
COc1ccc2c(c1)C(CC(=O)NCc1ccc[nH]1)=C(C)/C2=C/c1cc(OC)c(O)c(OC)c1 [Compound 022, (Z)—N-((1H-pyrrol-2-yl)methyl)-2-(1-(4-hydroxy-3,5-dimethoxybenzylidene)-5-methoxy-2-methyl-1H-inden-3-yl)acetamide] | 117 |  |  |  |  |  |  | 
COc1ccc2c(c1)C(CC(=O)NCc1ccco1)=C(C)/C2=C/c1ccc(O)c(OC)c1 [Compound 012, (Z)—N-(furan-2-ylmethyl)-2-(1-(4-hydroxy-3-methoxybenzylidene)-5-methoxy-2-methyl-1H-inden-3-yl)acetamide] |  |  | 900 nM | 170 nM | 5 |  |  | 
COc1ccc2c(c1)C(CC(=O)NCCN(C)C)=C(C)/C2=C/c1cc(OC)c(O)c(OC)c1 [Compound 003, (Z)—N-(2-(dimethylamino)ethyl)-2-(1-(4-hydroxy-3,5-dimethoxybenzylidene)-5-methoxy-2-methyl-1H-inden-3-yl)acetamide] |  |  | 4120 nM | 3650 nM | 1 |  |  | 
COc1cc(/C=C2/C(C)=C(CC(=O)Nc3ccccc3)c3cc(F)ccc32)cc(OC)c1O [Compound 035, (Z)-2-(5-fluoro-1-(4-hydroxy-3,5-dimethoxybenzylidene)-2-methyl-1H-inden-3-yl)-N-phenylacetamide] | 31 |  |  |  |  |  |  | 
COc1ccc2c(c1)C(CC(=O)Nc1cccnc1)=C(C)/C2=C/c1cc(OC)c(O)c(OC)c1 [Compound 004, (Z)-2-(1-(4-hydroxy-3,5-dimethoxybenzylidene)-5-methoxy-2-methyl-1H-inden-3-yl)-N-(pyridin-3-yl)acetamide] |  |  | 916 nM | 79 nM | 12 | 877 nM | 2 | 1600 nM
COc1ccc2c(c1)C(CC(=O)NCc1ccco1)=C(C)/C2=C/c1cc(Cl)c(O)c(OC)c1 [Compound 014, (Z)-2-(1-(3-chloro-4-hydroxy-5-methoxybenzylidene)-5-methoxy-2-methyl-1H-inden-3-yl)-N-(furan-2-ylmethyl)acetamide] |  |  | 500 nM | 110 nM | 5 |  |  | 
COc1cc(/C=C2/C(C)=C(CC(=O)NCc3ccco3)c3cc(F)ccc32)cc(OC)c1OS(C)(=O)=O [Compound 029, (Z)-2-(5-fluoro-1-(4-mesyloxy-3,5-dimethoxybenzylidene)-2-methyl-1H-inden-3-yl)-N-(furan-2-ylmethyl)acetamide] | 35 |  |  |  |  |  |  | 
COc1ccc2c(c1)C(CC(=O)NCc1ccco1)=C(C)/C2=C/c1cc(C)c(O)c(C)c1 [Compound 001, (Z)—N-(furan-2-ylmethyl)-2-(1-(4-hydroxy-3,5-dimethylbenzylidene)-5-methoxy-2-methyl-1H-inden-3-yl)acetamide] |  |  | 6280 nM | 716 nM | 9 | 435 nM | 3 | 1100 nM
COc1cc2c(cc1OC)/C(=C\c1cc(OC)c(O)c(OC)c1)C(C)=C2CC(=O)NCc1ccco1 [Compound 008, (Z)—N-(furan-2-ylmethyl)-2-(1-(4-hydroxy-3,5-dimethoxybenzylidene)-5,6-dimethoxy-2-methyl-1H-inden-3-yl)acetamide] |  |  | 1540 nM | 167 nM | 9 | 139 nM | 10 | 1330 nM
COc1ccc2c(c1)C(CC(=O)NCc1ccco1)=C(C)/C2=C/c1cc(Br)c(O)c(OC)c1 [Compound 013, (Z)-2-(1-(3-bromo-4-hydroxy-5-methoxybenzylidene)-5-methoxy-2-methyl-1H-inden-3-yl)-N-(furan-2-ylmethyl)acetamide] |  |  | 730 nM | 300 nM | 2 |  |  | 
COc1cc(/C=C2/C(C)=C(CC(=O)NCc3ccco3)c3cc(F)ccc32)cc(OC)c1OC=O [Compound 002, (Z)-2-(5-fluoro-1-(4-formoxy-3,5-dimethoxybenzylidene)-2-methyl-1H-inden-3-yl)-N-(furan-2-ylmethyl)acetamide] | 112 |  |  |  |  |  |  | 
COc1ccc2c(c1)C(CC(=O)NC1CCN(C)C1)=C(C)/C2=C/c1cc(OC)c(O)c(OC)c1 (stereo not shown) [Compound 005, (Z)-2-(1-(4-hydroxy-3,5-dimethoxybenzylidene)-5-methoxy-2-methyl-1H-inden-3-yl)-N-(1-methylpyrrolidin-3-yl)acetamide] |  |  | 7190 nM | 5940 nM | 1 |  |  | 
COc1cc(/C=C2/C(C)=C(CC(=O)NCc3ccccc3)c3cc(F)ccc32)cc(OC)c1O [Compound 015, (Z)—N-benzyl-2-(5-fluoro-1-(4-hydroxy-3,5-dimethoxybenzylidene)-2-methyl-1H-inden-3-yl)acetamide] | 80 |  |  |  |  |  |  | 
COc1ccc2c(c1)C(CC(=O)NCc1cccnc1)=C(C)/C2=C/c1cc(OC)c(O)c(OC)c1 [Compound 009, (Z)-2-(1-(4-hydroxy-3,5-dimethoxybenzylidene)-5-methoxy-2-methyl-1H-inden-3-yl)-N-(pyridin-3-ylmethyl)acetamide] |  |  | 4830 nM | 353 nM | 14 | 223 nM | 12 | 2610 nM
